Assay results from US20250281610A1, “P2RY2 ACTIVITY MODULATORS” (Deutsches Krebsforschungszentrum Stiftung des öffentlichen …, priority 2022, published 2025).

Columns and labels:
BxPC3 cells = experiment: Viability of BxPC3 cells in co-culture with MART-1-specific TCR-T cells (CellTiter-Blue); format: cell-based, human; conditions: single agent: 5 μM AR-C, 10 μg/ml atezolizumab or 10 μg/ml durvalumab, 6-24 hours (FIG. 11)
From the text: FIG. 11. […] Untreated cells served as the control.
(§1) MART-1 specific T cells were generated as described (Mezzadra et al., Nature 549, 106-110 (2017); Jorritsma et al., Blood 110 (10): 3564-3572. (2007)). To generate CD33-specific chimeric antigen receptor (CAR) T cells, a CD33Hul95-CD28Z CAR (described in WO 2019/178382) cassette was cloned into a retroviral vector, and the resulting virus was used to transduce T cells as described (Mezzadra et al., Nature 549, 106-110 (2017); Jorritsma et al., Blood 110 (10): 3564-3572. (2007)).
(§2) MART1-specific CD8+ T cells and MART1 epitope-expressing cancer cells were mixed at a ratio of 1:16 to 1:4. Next, cells were centrifugated at 1,600 g for 3 min and incubated at 37° C. and 5% CO2 for 12-72 hours. T cell activation was assessed by surface staining with anti-CD137-BV421 (4-1BB, Biolegend), anti-CD69-APC/Fire™ 750 (FN50, Biolegend), anti-CD25-AF700 (BC96, Biolegend) antibodies and intracellular staining with anti-IL-2-PE/Cy7 (MQ1-17H12, Biolegend), anti-IFN-7-BV421 (4S.B3, Biolegend), anti-TNF-α-BV785 (MAb11, Biolegend) antibodies, followed by flow cytometry analysis. For intracellular staining, brefeldin A (Biolegend) was added to the cell culture medium 4 h before cells were harvested. The viability of cancer cells that grow in suspension including THP-1 cells was assessed by flow cytometry-based absolute cell counting using AccuCount beads (Spherotech). For adherent cancer cells including BxPC3 and MCF7, the cell viability was quantified using CellTiter-Blue Cell Viability Assay (Promega).

[1] = test system: MART-1-specific TCR transduced T cells cultured with MART-1-epitope transduced BxPC3 cells; experiment: T cell activation markers in co-culture of MART-1-specific TCR-T cells with MART-1+ BxPC3 cells; format: cell-based, human; conditions: single agent: 5 μM AR-C, 10 μg/ml atezolizumab or 10 μg/ml durvalumab, 6-24 hours, CD8+ MART-1-specific TCR+ population (FIG. 10)
From the text: FIG. 10. […] Untreated cells served as the control.
as §1
as §2, with “Next, cells were centrifugated at 1,600 g for 3 min and incubated at 37° C. and 5% CO2 for 12-72 hours.” left out

durvalumab: Blocking antibody of the PD-L1-PD-1 immune checkpoint
viability of BxPC3 cells (BxPC3 cells): reduced
expression of CD25 on T cells [1]: elevated
expression of CD69 on T cells [1]: elevated
expression of CD137 on T cells [1]: elevated
